Assay results from US20240270801A1, “EPITOPE PEPTIDE OF HUMAN ALPHA-SYNUCLEIN AND PHARMACEUTICAL COMPOSITION INCLUDING SAID PEPTIDE” (Sumitomo Pharma Co., Ltd., priority 2021, published 2024).
Non-standard residues stand in square brackets, D forms with d. No end group written: not given here. KLH = keyhole limpet hemocyanin; Ahx = NCCCCCC(=O)O

How the values were obtained:
[1] = system: aggregated human αSyn; assay: Antibody-inducing ability in mice: ELISA antibody titer of immune serum with respect to aggregated human αSyn; format: in vivo, mouse; details: for Antibody titer with respect to aggregated human αSyn, relative to control: mice; for Antibody titer with respect to aggregated human αSyn (N = 4 − 6, mean ± standard deviation): Example 2, serum 2 weeks after second administration
Method: (§1) Using the various AJ peptide-human αSyn peptide conjugates produced in Example 1, an antibody-inducing ability with respect to human αSyn in mice was evaluated. The various AJ-human αSyn peptide conjugates (250 μg/mouse) or KLH-DMPVDPDN (25 μg/mouse) in physiological saline were intramuscularly administered to balb/c mice (females, 6 weeks old, CLEA Japan, Inc.) twice at a 2-week interval for immunization using aluminum hydroxide (Alum) (InvivoGen, 50 μg/mouse) as an adjuvant. As a negative control, physiological saline (100 μL/mouse) comprising the same amount of aluminum hydroxide was administered twice. Two weeks after the second administration, serum was recovered to evaluate the antibody titer with respect to human αSyn by ELISA.
(§2) ELISA was performed by the following method. 96-well plates were coated with human αSyn (Sigma) at 0.2 μg/well. After washing with PBST (Phosphate Buffered Saline comprising 0.05% Tween) once, blocking was performed with 3% skim milk (FUJIFILM Wako Pure Chemical Corporation). After washing with PBST three times, diluted serum was added to cause a reaction at room temperature for 1 hour. Furthermore, after washing with PBST three times, Goat anti-mouse IgG-HRP (abcam) was added to cause a reaction at room temperature for 1 hour. After washing with PBST three times, SureBlue TMB Microwell Peroxidase Substrate (KPL) was added to cause a reaction at room temperature for 10 minutes while light shielding. An equal volume of a TMB Stop Solution (KPL) was added to stop the reaction, and the absorbance at 450 nm was measured. ELISA with respect to aggregated human αSyn was performed by coating with the aggregated human αSyn (Stress Marq) at 15 ng/well instead of human αSyn in the above-mentioned method.
The antibody-inducing ability of the AJ-human αSyn peptide conjugates (AJ-p54, AJ-p54-KLH, and AJ-DMPVDPDN) produced in Example 1 with respect to human αSyn and aggregated human αSyn in mice was evaluated. Physiological saline or the AJ-human αSyn peptide conjugate (250 μg/mouse) was intramuscularly administered to balb/c mice (females, 6 weeks old, CLEA Japan, Inc.) twice at a 2-week interval using Alum (InvivoGen, 50 μg/mouse) as an adjuvant. Furthermore, KLH-DMPVDPDN (25 μg/mouse) was administered using Alum (InvivoGen, 50 μg/mouse) as an adjuvant. Two weeks after the second administration, serum was recovered to evaluate the antibody titer by ELISA. ELISA was performed by the method described in Example 2.
The antibody-inducing ability of the produced various human αSyn peptide conjugates with respect to human αSyn and aggregated human αSyn in the mice was evaluated by the method described in Example 2 using the antibody titers with respect to human αSyn and aggregated human αSyn of the mouse immune serum. […] In Table 6, the antibody titer of AJ-p242, AJ-p244, AJ-p347, or AJ-p361 is shown with the antibody titer of AJ-p150 as a control being 1 (logarithm). In addition, the antibody titers of AJ-p229, AJ-p237, and AJ-p298 are shown with the antibody titer of AJ-p54 as a control being 1 (logarithm).
The antibody-inducing ability of the AJ-human αSyn peptide conjugates with a modified linker with respect to human αSyn and aggregated human αSyn in the mice was evaluated using the antibody titers with respect to human αSyn and aggregated human αSyn of the mouse immune serum. […] In Table 8, the antibody titers of the AJ-human αSyn peptide conjugates with various modified linkers comprising p54 are shown with the antibody titer of AJ-p54 as a control being 1 (logarithm). In addition, the antibody titers of the AJ-human αSyn peptide conjugates with various modified linkers comprising p150 are shown with the antibody titer of AJ-p150 as a control being 1 (logarithm).

[2] = system: human αSyn; assay: Antibody-inducing ability in mice: ELISA antibody titer of immune serum with respect to human αSyn; format: in vivo, mouse; set-up: key to Antibody titer with respect to human αSyn, relative to control: log titer relative to control conjugate (control = 1); details: for Antibody titer with respect to human αSyn, relative to control / Antibody titer (N = 4 − 6, mean ± standard deviation) with respect to human αSyn: mice; for Antibody titer compared with control conjugate (in words): Example 9, mice, human αSyn and aggregated human αSyn, control AJ-p150 or AJ-p54; for Antibody titer with respect to human αSyn (N = 4 − 6, mean ± standard deviation): Example 2, serum 2 weeks after second administration; for Antibody titer (N = 4 − 6, mean ± standard deviation) with respect to human αSyn: Example 3, same manner as Example 2
Method: as §1
as §2, with “above-mentioned method. […]” for “above-mentioned method.”
The antibody-inducing ability of the produced various human αSyn peptide conjugates with respect to human αSyn and aggregated human αSyn in the mice was evaluated by the method described in Example 2 using the antibody titers with respect to human αSyn and aggregated human αSyn of the mouse immune serum. […] In Table 6, the antibody titer of AJ-p242, AJ-p244, AJ-p347, or AJ-p361 is shown with the antibody titer of AJ-p150 as a control being 1 (logarithm). In addition, the antibody titers of AJ-p229, AJ-p237, and AJ-p298 are shown with the antibody titer of AJ-p54 as a control being 1 (logarithm). […]

[3] = Example 10, modified linker, titer of AJ-p54 or AJ-p150 as control being 1 (logarithm)
[4] = Example 9, N = 4, titer of AJ-p150 or AJ-p54 as control being 1 (logarithm)
[5] = balb/c mice, i.m. twice at 2-week interval, Alum, AJ conjugates 250 μg/mouse, KLH-DMPVDPDN 25 μg/mouse
[6] = Example 4, balb/c mice, i.m. twice at 2-week interval, Alum, AJ conjugates 250 μg/mouse, KLH-DMPVDPDN 25 μg/mouse

ELKLIFLHRLKRLRKRLKRKDDAKKEAYEMPSEE [AJ-DDAKK-p150]
Antibody titer with respect to aggregated human αSyn, relative to control [1, 3]: 1.30 | Antibody titer with respect to human αSyn, relative to control [2, 3]: 1.14

ELKLIFLHRLKRLRKRLKRKDDAKKKKDQLGKNE [AJ-DDAKK-p54]
Antibody titer with respect to aggregated human αSyn, relative to control [1, 3]: 0.98 | Antibody titer with respect to human αSyn, relative to control [2, 3]: 1.03

ELKLIFLHRLKRLRKRLKRKEAAAKEAYEMPSEE [AJ-EAAAK-p150]
Antibody titer with respect to aggregated human αSyn, relative to control [1, 3]: 1.16 | Antibody titer with respect to human αSyn, relative to control [2, 3]: 1.14

ELKLIFLHRLKRLRKRLKRKEAAAKKKDQLGKNE [AJ-EAAAK-p54]
Antibody titer with respect to aggregated human αSyn, relative to control [1, 3]: 0.96 | Antibody titer with respect to human αSyn, relative to control [2, 3]: 0.96

ELKLIFLHRLKRLRKRLKRKGEAYEMPSEE [AJ-G-p150]
Antibody titer with respect to aggregated human αSyn, relative to control [1, 3]: 0.95 | Antibody titer with respect to human αSyn, relative to control [2, 3]: 0.96

ELKLIFLHRLKRLRKRLKRKGGGGSEAYEMPSEE [AJ-GGGGS-p150]
Antibody titer with respect to aggregated human αSyn, relative to control [1, 3]: 1.25 | Antibody titer with respect to human αSyn, relative to control [2, 3]: 1.19

ELKLIFLHRLKRLRKRLKRKGGGGSKKDQLGKNE [AJ-GGGGS-p54]
Antibody titer with respect to aggregated human αSyn, relative to control [1, 3]: 1.02 | Antibody titer with respect to human αSyn, relative to control [2, 3]: 1.05

ELKLIFLHRLKRLRKRLKRKGKKDQLGKNE [AJ-G-p54]
Antibody titer with respect to aggregated human αSyn, relative to control [1, 3]: 0.96 | Antibody titer with respect to human αSyn, relative to control [2, 3]: 0.89

ELKLIFLHRLKRLRKRLKRKPPDPDPEAYEMPSEE [AJ-PPDPDP-p150]
Antibody titer with respect to aggregated human αSyn, relative to control [1, 3]: 1.37 | Antibody titer with respect to human αSyn, relative to control [2, 3]: 1.33

ELKLIFLHRLKRLRKRLKRKPPDPDPKKDQLGKNE [AJ-PPDPDP-p54]
Antibody titer with respect to aggregated human αSyn, relative to control [1, 3]: 0.88 | Antibody titer with respect to human αSyn, relative to control [2, 3]: 0.89

ELKLIFLHRLKRLRKRLKRKXAAYEMPSEEG (ELKLIFLHRLKRLRKRLKRK[Ahx]AAYEMPSEEG) [AJ-p242]
Antibody titer with respect to aggregated human αSyn, relative to control [1, 4]: 1.12 | Antibody titer compared with control conjugate (in words) [2]: same level of an antibody titer | Antibody titer with respect to human αSyn, relative to control [2, 4]: 1.06

ELKLIFLHRLKRLRKRLKRKXDAFEMPSEEG (ELKLIFLHRLKRLRKRLKRK[Ahx]DAFEMPSEEG) [AJ-p361]
Antibody titer with respect to aggregated human αSyn, relative to control [1, 4]: 0.95 | Antibody titer compared with control conjugate (in words) [2]: same level of an antibody titer | Antibody titer with respect to human αSyn, relative to control [2, 4]: 0.92

ELKLIFLHRLKRLRKRLKRKXDAYEMPSEEG (ELKLIFLHRLKRLRKRLKRK[Ahx]DAYEMPSEEG) [AJ-p276]
Antibody titer with respect to aggregated human αSyn (N = 4 − 6, mean ± standard deviation) [1, 5]: 896 ± 256 | Antibody titer with respect to human αSyn (N = 4 − 6, mean ± standard deviation) [2, 5]: 1792 ± 512

ELKLIFLHRLKRLRKRLKRKXDMPVDPDN (ELKLIFLHRLKRLRKRLKRK[Ahx]DMPVDPDN) [AJ-DMPVDPDN, reference compound]
Induction of the antibody to aggregated human αSyn (in words) ([1]; Example 4, balb/c mice): very weak antibody-inducing effect | Antibody titer with respect to aggregated human αSyn (mean ± standard deviation) [1, 6]: 358 ± 140 | Induction of the antibody to human αSyn (in words) ([2]; Example 4, balb/c mice): very weak antibody-inducing effect | Antibody titer with respect to human αSyn (mean ± standard deviation) [2, 6]: 168 ± 122

ELKLIFLHRLKRLRKRLKRKXEAAEMPSEEG (ELKLIFLHRLKRLRKRLKRK[Ahx]EAAEMPSEEG) [AJ-p244]
Antibody titer with respect to aggregated human αSyn, relative to control [1, 4]: 1.10 | Antibody titer compared with control conjugate (in words) [2]: same level of an antibody titer | Antibody titer with respect to human αSyn, relative to control [2, 4]: 1.06

ELKLIFLHRLKRLRKRLKRKXEAFEMPSEEG (ELKLIFLHRLKRLRKRLKRK[Ahx]EAFEMPSEEG) [AJ-p277]
Antibody titer with respect to aggregated human αSyn (N = 4 − 6, mean ± standard deviation) [1, 5]: 576 ± 322 | Antibody titer with respect to human αSyn (N = 4 − 6, mean ± standard deviation) [2, 5]: 1920 ± 1585

ELKLIFLHRLKRLRKRLKRKXEAYEMPSEDG (ELKLIFLHRLKRLRKRLKRK[Ahx]EAYEMPSEDG) [AJ-p283, AJ peptide linked to p283 via ε-Acp (X)]
Antibody-inducing ability regarding the aggregated human αSyn (in words) ([1]; Example 2, balb/c mice): particularly strong antibody-inducing ability | Antibody titer with respect to aggregated human αSyn (N = 4 − 6, mean ± standard deviation) [1, 5]: 1152 ± 644 | Antibody titer with respect to human αSyn (N = 4 − 6, mean ± standard deviation) [2, 5]: 2304 ± 1289

ELKLIFLHRLKRLRKRLKRKXEAYEMPSEE (ELKLIFLHRLKRLRKRLKRK[Ahx]EAYEMPSEE) [AJ-p150, AJ peptide linked to p150 via ε-Acp (X)]
Antibody titer with respect to aggregated human αSyn (N = 4 − 6, mean ± standard deviation) [1, 5]: 576 ± 322 | Antibody titer with respect to aggregated human αSyn, relative to control [1, 4]: 1 | Antibody titer with respect to aggregated human αSyn, relative to control [1, 3]: 1 | Antibody titer with respect to human αSyn (N = 4 − 6, mean ± standard deviation) [2, 5]: 2176 ± 1471 | Antibody titer with respect to human αSyn, relative to control [2, 4]: 1 | Antibody titer with respect to human αSyn, relative to control [2, 3]: 1

ELKLIFLHRLKRLRKRLKRKXHAFEMPSEEG (ELKLIFLHRLKRLRKRLKRK[Ahx]HAFEMPSEEG) [AJ-p347]
Antibody titer with respect to aggregated human αSyn, relative to control [1, 4]: 0.97 | Antibody titer compared with control conjugate (in words) [2]: same level of an antibody titer | Antibody titer with respect to human αSyn, relative to control [2, 4]: 0.97

ELKLIFLHRLKRLRKRLKRKXKKDELGKDE (ELKLIFLHRLKRLRKRLKRK[Ahx]KKDELGKDE) [AJ-p298]
Antibody titer with respect to aggregated human αSyn, relative to control [1, 4]: 0.93 | Antibody titer compared with control conjugate (in words) [2]: same level of an antibody titer | Antibody titer with respect to human αSyn, relative to control [2, 4]: 0.82

KKDQLGKNE-C-KLH (KKDQLGKNEC-{KLH}) [p54-KLH, KLH-human αSyn peptide conjugate]
Induction of the antibody to human αSyn (in words) ([2]; Example 3, mice): the antibody to human αSyn was induced | Antibody titer (N = 4 − 6, mean ± standard deviation) with respect to human αSyn [2]: 3072 ± 2748

KLH-C-ELKLIFLHRLKRLRKRLKRKXKKDQLGKNE ({KLH}-CELKLIFLHRLKRLRKRLKRK[Ahx]KKDQLGKNE) [KLH-AJ-p54, KLH-modified AJ-human αSyn peptide conjugate, KLH linked via cysteine to the N-terminal]
Induction of the antibody to human αSyn (in words) ([2]; Example 3, mice): induced to the same extent | Antibody titer (N = 4 − 6, mean ± standard deviation) with respect to human αSyn [2]: 1707 ± 1240

KLH-C-KKDQLGKNE ({KLH}-CKKDQLGKNE) [KLH-p54, KLH-human αSyn peptide conjugate]
Induction of the antibody to human αSyn (in words) ([2]; Example 3, mice): the antibody to human αSyn was induced | Antibody titer (N = 4 − 6, mean ± standard deviation) with respect to human αSyn [2]: 4096 ± 2243
